# From patent US20230391736A1, “3-TETRAZOLYLMETHYL-1,3,5-TRIAZIN-2,4-DIONE COMPOUND INHIBITING CORONAVIRUS 3CL PROTEASE ACTIVITY AND PREPARATION METHOD AND USE THEREOF” (priority 2022, published 2023)
# Read-outs that look alike come from different tables or passages of the source.
# Tests used:
# HepG2 cells = assay: In-vitro cytotoxicity by the MTT method, HepG2 cells; details: 24 hrs
# Procedure: (§1) The in-vitro cytotoxicity of Compounds 1, 12, and 17 was evaluated by the MTT method. HepG2, HEK293 and A549 cells in logarithmic growth phase were respectively trypsinized into a cell suspension. The cell density was adjusted to 5×10^4 cells/mL. 180 μL per well of the cell suspension was inoculated into a sterile 96-well plate at 37° C., and cultured in an incubator at 5% CO2 for 24 hrs. After the cells were attached to the bottom of the plate, 20 μL of the drug solutions over the concentration gradients were respectively added into each well, and 6 replicate wells were set in parallel. Also, a blank group (group without cells and drug) and a control group (group without drug) were set. The system was incubated in an incubator at 37° C. and 5% CO2 for 24 hrs, and then 20 μL per well of a 5 g/L MTT solution was added and incubated for another 4 hrs. After the incubation was completed, the culture medium in the well was gently aspirated, and 100 μL of DMSO was added to each well. Then the crystal was fully dissolved in a shaker for 10 min at a low speed. After that, the absorbency of each well was measured at OD490 nm in an enzymelinked immunodetector, and the survival rate of cells was calculated.
# A549 cells = assay: In-vitro cytotoxicity by the MTT method, A549 cells; details: 24 hrs
# Procedure: as §1
# SARS-CoV-2 3CL^pro = SARS-CoV-2 3CL^pro (Severe acute respiratory syndrome coronavirus 2 (2019-nCoV) (SARS-CoV-2), UniProt P0DTD1); assay: biochemical; details: for IC50: FRET
# HEK293 cells = assay: In-vitro cytotoxicity by the MTT method, HEK293 cells; details: 24 hrs
# Procedure: as §1
smiles,measurement,setting,value
Cn1cc2cc(/N=c3\[nH]c(=O)n(Cc4nnn[nH]4)c(=O)n3Cc3cc(F)c(F)cc3F)c(Cl)cc2n1 [Compound 1],Survival rate of HepG2 cells,HepG2 cells; 1.5625 nM,97.17%
same,Survival rate of HepG2 cells,HepG2 cells; 3.125 nM,96.73%
same,Survival rate of HepG2 cells,HepG2 cells; 6.25 nM,95.83%
same,Survival rate of HepG2 cells,HepG2 cells; 12.5 nM,93.62%
same,Survival rate of HepG2 cells,HepG2 cells; 25 nM,90.15%
same,Survival rate of HepG2 cells,HepG2 cells; 50 nM,89.09%
same,Survival rate of HepG2 cells,HepG2 cells; 100 nM,85.37%
same,Survival rate of HepG2 cells,HepG2 cells; 200 nM,84.76%
same,Survival rate of HepG2 cells,HepG2 cells; 400 nM,82.33%
same,Survival rate of A549 cells,A549 cells; 1.5625 nM,98.18%
same,Survival rate of A549 cells,A549 cells; 3.125 nM,98.39%
same,Survival rate of A549 cells,A549 cells; 6.25 nM,98.23%
same,Survival rate of A549 cells,A549 cells; 12.5 nM,96.93%
same,Survival rate of A549 cells,A549 cells; 25 nM,96.16%
same,Survival rate of A549 cells,A549 cells; 50 nM,96.33%
same,Survival rate of A549 cells,A549 cells; 100 nM,95.75%
same,Survival rate of A549 cells,A549 cells; 200 nM,93.23%
same,Survival rate of A549 cells,A549 cells; 400 nM,92.19%
same,IC50,"SARS-CoV-2 3CL^pro; class symbols, read-out: IC50 (nM), inhibitory activity against 3CL^pro",< 200 nM
same,IC50,"SARS-CoV-2 3CL^pro; non-linear regression, read-out: IC50 against 3CL^pro",120 nM
same,inhibition percentage of 3CL^pro,SARS-CoV-2 3CL^pro; concentration 0.1 nM,0.86%
same,inhibition percentage of 3CL^pro,SARS-CoV-2 3CL^pro; concentration 1 nM,2.12%
same,inhibition percentage of 3CL^pro,SARS-CoV-2 3CL^pro; concentration 5 nM,7.77%
same,inhibition percentage of 3CL^pro,SARS-CoV-2 3CL^pro; concentration 10 nM,9.75%
same,inhibition percentage of 3CL^pro,SARS-CoV-2 3CL^pro; concentration 20 nM,14.30%
same,inhibition percentage of 3CL^pro,SARS-CoV-2 3CL^pro; concentration 30 nM,18.23%
same,inhibition percentage of 3CL^pro,SARS-CoV-2 3CL^pro; concentration 50 nM,21.89%
same,inhibition percentage of 3CL^pro,SARS-CoV-2 3CL^pro; concentration 100 nM,58.21%
same,inhibition percentage of 3CL^pro,SARS-CoV-2 3CL^pro; concentration 500 nM,73.44%
same,inhibition percentage of 3CL^pro,SARS-CoV-2 3CL^pro; concentration 1000 nM,89.12%
same,Survival rate of HEK293 cells,HEK293 cells; 1.5625 nM,95.07%
same,Survival rate of HEK293 cells,HEK293 cells; 3.125 nM,95.62%
same,Survival rate of HEK293 cells,HEK293 cells; 6.25 nM,93.10%
same,Survival rate of HEK293 cells,HEK293 cells; 12.5 nM,90.50%
same,Survival rate of HEK293 cells,HEK293 cells; 25 nM,88.23%
same,Survival rate of HEK293 cells,HEK293 cells; 50 nM,87.10%
same,Survival rate of HEK293 cells,HEK293 cells; 100 nM,82.87%
same,Survival rate of HEK293 cells,HEK293 cells; 200 nM,82.56%
same,Survival rate of HEK293 cells,HEK293 cells; 400 nM,80.83%
